For seven compounds, IC50 results are on record in BindingDB's records for doi:10.1021/acs.jmedchem.5b00865 (A.V. Bogatsky Physico-Chemical Institute of The National …, 2015).

One assay concerns the target Integrin alpha-IIb/beta-3 (Homo sapiens). Briefly: Antagonist activity against integrin alpha2bbeta3 open form in human platelet rich plasma assessed as inhibition of ADP-induced platelet aggregation.
Regarding `CCCCS(=O)(=O)N[C@@H](CNC(=O)CCNC(=O)c1ccc2c(c1)CNCC2)C(=O)O`, the IC50 was found to be 320 nM.
Consider `CCCCS(=O)(=O)N[C@H](CNC(=O)CCNC(=O)c1ccc2c(c1)CNCC2)C(=O)O`, for which the IC50 came out at 670 nM.
On the same count and under the same terms, as for `O=C(CCNC(=O)c1ccc2c(c1)CNCC2)NC[C@@H](NS(=O)(=O)c1ccccc1)C(=O)O`, the figure is 25 nM; as for `O=C(CCNC(=O)c1ccc2c(c1)CNCC2)NC[C@H](NS(=O)(=O)c1ccccc1)C(=O)O`, 6.2 nM.

The target is the same in a further assay. Briefly: Antagonist activity against integrin alpha2bbeta3 closed form in human platelet rich plasma assessed as inhibition of ADP-induced platelet aggregation.
As to `NCCCC(=O)Nc1ccc2nc(N3CCNCC3)[nH]c(=O)c2c1`, the IC50 was 11 nM.
The same measure, in the same setting: the result for `NCCC(=O)Nc1ccc2nc(N3CCNCC3)[nH]c(=O)c2c1` reads 150 nM; that for `O=C(Nc1ccc2nc(N3CCNCC3)[nH]c(=O)c2c1)C1CCNCC1`, 100 nM.

By IC50 is commonly meant the midpoint of a concentration-inhibition curve.
